From US8658801B2, “Pesticides containing a bicyclic bisamide structure” (Syngenta Crop Protection, LLC, priority 2006, dated 2014)
Like-named read-outs stand apart in the source and are kept apart here.

Columns and labels:
[1] = tested on: Plutella xylostella (Diamond Back Moth); test: Example B14: comparison with state of the art, Plutella xylostella, larvicide, feeding/residual contact, preventive; type: in vivo
Description: Plutella xylostella (Diamond Back Moth)
(Larvicide, Feeding/Residual Contact Activity, Preventive)
24-well microtiter plate (MTP) with artificial diet is treated with test solutions by pipetting. After drying, the MTP's are infested with larvae (L2)(10-15 per well). After an incubation period of 5 days, samples are checked for larval mortality, antifeedant and growth regulation.

Heliothis virescens = test: Example B15: comparison with state of the art, Heliothis virescens ovo-larvicide test; type: in vivo; details: for inhibition at 0.8 ppm / inhibition at 3.1 ppm / inhibition at 12.5 ppm / inhibition at 50 ppm: Heliothis virescens, 96 h, read-out: Ovo-larvicidal activity (%) after 4 days
Description: Activity Against Heliothis virescens (Ovo-Larvicide Test)
(§1) Eggs (0-24 h old) are placed in 24-well microtiter plate on artificial diet and treated with test solutions by pipetting. After an incubation period of 4 days, samples are checked for egg mortality, larval mortality, and growth regulation.

[2] = tested on: Spodoptera littoralis (Egyptian Cotton Leafworm); test: Example B1: activity against Spodoptera littoralis, larvicide, feeding/residual contact, preventive (cotton leaf discs); type: in vivo; details: foliar, 72 h, 3 days after treatment, L1 larvae
[3] = tested on: Heliothis virescens (Tobacco Budworm); test: Example B2: activity against Heliothis virescens, ovo-larvicide, feeding/contact, curative; type: in vivo; details: 96 h, 4 days incubation, eggs 0-24 h old
Description: Activity Against Heliothis virescens (Tobacco Budworm)
(Ovo-Larvicide, Feeding/Contact Activity, Curative)
as §1

[4] = tested on: Plutella xylostella (Diamond Back Moth); test: Example B3: Plutella xylostella, larvicide, feeding/residual contact, preventive (artificial diet MTP); type: in vivo; details: 120 h, 5 days incubation, L2 larvae
How it was run: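 Artificial diet in multiwell plates treated with test solution, dried, then infested with 10–15 L2 larvae per well. After 5 days, larval mortality, antifeedant effect and growth regulation were scored.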

[5] = tested on: Diabrotica balteata (Corn Root Worm); test: Example B4: Diabrotica balteata, larvicide, feeding/residual contact, preventive; type: in vivo; details: 120 h, 5 days incubation, L2 larvae
How it was run: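 Artificial diet treated with test solution, dried, then infested with 6-10 L2 larvae per well. Larval mortality, antifeedant effect and growth regulation checked after 5 days of incubation.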

[6] = tested on: Cydia pomonella (Codling Moth); test: Example B8: activity against Cydia pomonella (paraffin-coated diet cubes); type: in vivo; details: 336 h, 14 days incubation at 26° C.
Description: Activity Against Cydia pomonella (Codling Moth)
Standard Cydia diet cubes (1.5 cm width) are pierced with a tooth-pick and are immersed in liquid paraffin (ca. 80° C.). After the paraffin coat has hardened, an aqueous emulsion containing 400 ppm of active ingredient is applied using a De Vilbis sprayer (25 ml, 1 bar). After the spray coating has dried, the cubes are put into plastic containers which are then populated with two freshly hatched Cydia pomonella (1st instar). The containers are then closed with a plastic cap. After 14 days incubation at 26° C. and 40-60% relative humidity, the survival rate of the caterpillars as well as their growth regulation is determined. In this test, compounds listed in Table P above show good activity. In particular compounds P.10, P.11, P.12, P.18, P.19, P.20, P.29, P.30, P.31, P.32, P.33, P.34, P.35, P.37, P.38, P.39, P.42, and P.43 show an activity of over 80% at a concentration of 400 ppm.

[7] = tested on: Frankliniella occidentalis (Western Flower Thrips); test: Example B9: activity against Frankliniella occidentalis (bean leaf discs or bean plants); type: in vivo; details: foliar, 6 days (leaf discs) or 14 days (plants) after infestation
Description: Activity Against Frankliniella occidentalis (Western Flower Thrips)
Bean leaf discs on agar in petri dishes or bean plants in a spray chamber are treated with diluted test solutions. After drying leaf discs are cut and placed in plastic cups on the surface of an agar layer and infested with mixed population. 6 days (leaf discs) or 14 days (plants) after the infestation, samples are checked for reduction of treated population and compared to the non treated population.

[8] = tested on: Aphis craccivora (Pea Aphid); test: Example B10: activity against Aphis craccivora, mixed population, contact/feeding; type: in vivo; details: 144 h, 6 days after treatment, spray (contact/feeding)
From the text: (§2) Activity Against Aphis craccivora (Pea Aphid)
(Mixed Population, Contact/Feeding)
6 days after treatment, samples are checked for mortality.

[9] = tested on: Aphis craccivora (Pea Aphid); test: Example B11: activity against Aphis craccivora, mixed population, systemic/feeding; type: in vivo; details: 144 h, 6 days, roots in test solution (systemic)
From the text: as §2
(§3) (Mixed Population, Systemic/Feeding)
(§4) 6 days later, samples are checked for mortality.

[10] = tested on: Thrips tabaci (Onion Thrips); test: Example B7: activity against Thrips tabaci, mixed population, feeding/residual contact, preventive; details: 144 h, read-out: activity
[11] = tested on: Myzus persicae (Green Peach Aphid); test: Example B6: activity against Myzus persicae, mixed population, systemic/feeding, curative (pea seedling roots); details: 144 h, read-out: activity
[12] = tested on: Myzus persicae (Green Peach Aphid); test: Example B5: activity against Myzus persicae, mixed population, feeding/residual contact, preventive (sunflower leaf discs); details: foliar, 144 h, read-out: activity
[13] = tested on: Aphis aossypii (Cotton Aphid); test: Example B13: activity against cotton aphid, mixed population, systemic/feeding; type: in vivo; details: 144 h, 6 days, roots in test solution (systemic)
From the text: Activity Against Aphis aossypii (Cotton Aphid)
as §3, §4

[14] = especially at 12.5, 3.1 and 0.8 ppm

Compound	pest or weed control at 400 ppm [2] [%]	pest or weed control at 400 ppm [3] [%]	pest or weed control at 400 ppm [4] [%]	pest or weed control at 400 ppm [5] [%]	pest or weed control at 400 ppm [6] [%]	pest or weed control at 400 ppm [7] [%]	pest or weed control at 400 ppm [8] [%]	pest or weed control at 400 ppm [9] [%]	pest or weed control at 400 ppm [10] [%]	pest or weed control at 400 ppm [11] [%]	pest or weed control at 400 ppm [12] [%]	pest or weed control at 400 ppm [13] [%]	other results
Cc1cc2cn[nH]c2c(C(=O)NC2(C3CC3)CC2)c1NC(=O)c1cc(C(F)F)nn1-c1ncccc1Cl													melting point: 224 to 227 °C
Cc1nc2ccccc2c(C(=O)NC(C)C)c1NC(=O)c1cc(C(F)(F)F)nn1-c1ncccc1Cl [Compound T81.3, reference compound]													Death rate (%) after 5 days ([1]; 0.8 ppm): 0%; Death rate (%) after 5 days ([1]; 3.1 ppm): 0%; Death rate (%) after 5 days ([1]; 12.5 ppm): 60%; Death rate (%) after 5 days ([1]; 50 ppm): 100%; inhibition at 0.8 ppm (Heliothis virescens): 0%; inhibition at 3.1 ppm (Heliothis virescens): 25%; inhibition at 12.5 ppm (Heliothis virescens): 65%; inhibition at 50 ppm (Heliothis virescens): 80%
C#Cc1cc2cn[nH]c2c(C(=O)NC(C)C)c1NC(=O)c1cc(C(F)(F)F)nn1-c1ncccc1Cl [Example 34, 6-{[2-(3-chloro-pyridin-2-yl)-5-trifluoromethyl-2H-pyrazole-3-carbonyl]-amino}-5-ethynyl-1H-indazole-7-carboxylic acid isopropylamide]													melting point: 226 to 229 °C
CC(C)NC(=O)c1c(NC(=O)c2cc(C(F)(F)F)nn2-c2ncccc2Cl)c(Cl)cc2cn[nH]c12 [P.10]	> 80	> 80	> 80	> 80	> 80	> 80	> 80	> 80	> 80	> 80	> 80		
COc1cc(C(=O)Nc2c(C)cc3cn[nH]c3c2C(=O)NC(C)C)n(-c2ncccc2Cl)n1 [P.27, 6-{[2-(3-chloro-pyridin-2-yl)-5-methoxy-2H-pyrazole-3-carbonyl]-amino}-5-methyl-1H-indazole-7-carboxylic acid isopropylamide]	> 80	> 80	> 80	> 80		> 80	> 80	> 80	> 80	> 80	> 80	> 80	
COc1cc(C(=O)Nc2c(C)cc3cn[nH]c3c2C(=O)NC2(C3CC3)CC2)n(-c2ncccc2Cl)n1 [P.28, 6-{[2-(3-chloro-pyridin-2-yl)-5-methoxy-2H-pyrazole-3-carbonyl]-amino}-5-methyl-1H-indazole-7-carboxylic acid bicyclopropyl-1-ylamide]	> 80	> 80	> 80	> 80		> 80	> 80	> 80	> 80	> 80	> 80	> 80	
CCNC(=O)c1c(NC(=O)c2cc(C(F)(F)F)nn2-c2ncccc2Cl)c(Cl)cc2cn[nH]c12 [P.30]	> 80	> 80	> 80	> 80	> 80	> 80	> 80	> 80		> 80	> 80	> 80	
COc1cc(C(=O)Nc2c(Cl)cc3cn[nH]c3c2C(=O)NC(C)C)n(-c2ncccc2Cl)n1 [P.40]	> 80	> 80	> 80			> 80	> 80	> 80	> 80	> 80	> 80	> 80	
CC(C)NC(=O)c1c(NC(=O)c2cc(Br)nn2-c2ncccc2Cl)c(Cl)cc2cn[nH]c12 [P.42]	> 80	> 80	> 80	> 80	> 80	> 80	> 80	> 80	> 80	> 80	> 80	> 80	
CC(C)NC(=O)c1c(NC(=O)c2cc(Cl)nn2-c2ncccc2Cl)c(Cl)cc2cn[nH]c12 [P.43]	> 80	> 80	> 80	> 80	> 80	> 80	> 80	> 80	> 80	> 80	> 80	> 80	
Cc1cc2cn[nH]c2c(C(=O)NC(C)C)c1NC(=O)c1cc(C(F)(F)F)nn1-c1ncccc1Cl [P.44]	> 80	> 80	> 80	> 80		> 80	> 80	> 80	> 80	> 80	> 80	> 80	
COc1cc(C(=O)Nc2c(Cl)cc3cn[nH]c3c2C(=O)NC2(C3CC3)CC2)n(-c2ncccc2Cl)n1 [P.47]	> 80	> 80	> 80	> 80		> 80	> 80	> 80	> 80	> 80	> 80	> 80	
Cc1cc2ncccc2c(C(=O)NC(C)C)c1NC(=O)c1cc(C(F)(F)F)nn1-c1ncccc1Cl [P.78, 6-{[2-(3-chloro-pyridin-2-yl)-5-trifluoromethyl-2H-pyrazole-3-carbonyl]-amino}-7-methyl-quinoline-5-carboxylic acid isopropylamide]		> 80	> 80	> 80									Death rate (%) after 5 days ([1]; 0.8 ppm): 50%; Death rate (%) after 5 days ([1]; 3.1 ppm): 100%; Death rate (%) after 5 days ([1]; 12.5 ppm): 100%; Death rate (%) after 5 days ([1]; 50 ppm): 100%; insecticidal action compared with the compound from the state of the art (T81.3) [1, 14]: substantially better insecticidal action; inhibition at 0.8 ppm (Heliothis virescens; 0.8 ppm): 50%; inhibition at 3.1 ppm (Heliothis virescens; 3.1 ppm): 50%; inhibition at 12.5 ppm (Heliothis virescens; 12.5 ppm): 80%; inhibition at 50 ppm (Heliothis virescens; 50 ppm): 80%; insecticidal action compared with the compound from the state of the art (T81.3) (Heliothis virescens; [14]): substantially better insecticidal action
